Measured values published in patent US11524966B1 (Valo Early Discovery, Inc., priority 2017, dated 2022).

Target: T1, USP28 (USP28-5(1-1077)-TEV-6*His; LifeSensors) (Homo sapiens, UniProt Q96RU2)
T1 construct: construct USP28 (USP28-5(1-1077)-TEV-6*His; LifeSensors); TEV cleavage site (C); 6xHis (C); purchased LifeSensors
T1 sequence (Q96RU2 1-1077): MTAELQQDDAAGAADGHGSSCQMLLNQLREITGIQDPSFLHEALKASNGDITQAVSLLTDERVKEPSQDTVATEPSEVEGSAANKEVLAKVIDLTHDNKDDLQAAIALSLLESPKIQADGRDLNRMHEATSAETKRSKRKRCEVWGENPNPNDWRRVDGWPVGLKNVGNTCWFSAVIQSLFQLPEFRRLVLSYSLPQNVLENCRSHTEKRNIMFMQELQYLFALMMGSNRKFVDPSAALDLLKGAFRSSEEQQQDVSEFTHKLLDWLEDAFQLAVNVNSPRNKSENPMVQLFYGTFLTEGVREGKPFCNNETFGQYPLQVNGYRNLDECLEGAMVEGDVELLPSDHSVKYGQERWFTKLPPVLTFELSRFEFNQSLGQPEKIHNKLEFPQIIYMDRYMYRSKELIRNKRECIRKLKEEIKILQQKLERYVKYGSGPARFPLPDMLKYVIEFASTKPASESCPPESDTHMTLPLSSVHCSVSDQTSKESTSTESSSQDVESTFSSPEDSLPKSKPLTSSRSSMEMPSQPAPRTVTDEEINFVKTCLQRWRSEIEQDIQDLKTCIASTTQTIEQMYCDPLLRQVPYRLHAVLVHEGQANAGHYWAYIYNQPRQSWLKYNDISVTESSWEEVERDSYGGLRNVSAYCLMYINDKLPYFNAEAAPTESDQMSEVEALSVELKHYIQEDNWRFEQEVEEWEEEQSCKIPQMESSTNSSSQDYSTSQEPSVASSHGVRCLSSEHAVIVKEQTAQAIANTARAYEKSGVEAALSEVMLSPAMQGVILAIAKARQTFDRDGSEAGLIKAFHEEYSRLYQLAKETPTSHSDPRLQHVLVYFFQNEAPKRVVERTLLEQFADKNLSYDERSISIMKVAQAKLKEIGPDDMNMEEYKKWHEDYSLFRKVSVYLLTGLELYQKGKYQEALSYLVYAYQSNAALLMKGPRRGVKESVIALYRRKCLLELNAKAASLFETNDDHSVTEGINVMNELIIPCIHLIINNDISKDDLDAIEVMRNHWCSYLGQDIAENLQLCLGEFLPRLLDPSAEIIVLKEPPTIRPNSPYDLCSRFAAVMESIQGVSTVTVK
Assay: Ubiquitin-Rhodamine 110 Assay for USP28 Activity, Example A-1(b)
Assay type: biochemical
Details: Ubiquitin-Rhodamine 110 assay, Example A-1(b)
Procedure, shortened: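 Single-point screening used 10 μM compound with 90 min room-temperature incubation; follow-up dose-responses (25 μM top, 3-fold) used 75 pM USP28 1-1077 construct, 30 min compound preincubation, 25 nM Ub-Rh110, 20 min reaction, citric acid quench. Rh110 fluorescence normalised to no-enzyme and DMSO controls; IC50 from 4-parameter logistic fit.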

| SMILES | USP28 A-1(b) IC50 range |
| --- | --- |
| Cc1ccc2c(N)c(C(=O)N[C@H]3COc4cc(N5C[C@@H](F)[C@@H](N)C5)ccc4C3)sc2n1 (single isomer, unassigned) [Example 3-6] | ++ (0.2-2 μM) |
| Cc1ccc2c(N)c(C(=O)N[C@H]3COc4cc(N5C[C@@H](N)[C@@H](F)C5)ccc4C3)sc2n1 (single isomer, unassigned) [Example 3-5] | +++ (0.05-0.2 μM) |
